The results in this text go back to ChEMBL document CHEMBL3621059, “Discovery of 4-Aryl-5,6,7,8-tetrahydroisoquinolines as Potent, Selective, and Orally Active Aldosterone Synthase (CYP11B2) Inhibitors: In Vivo Evaluation in Rodents and Cynomolgus Monkeys” (J Med Chem, 2015).

Structures are written as SMILES. ≈ marks a conversion by molar mass, not a printed value. Calls of active or inactive are those of the source. The calls are words filed in the database; no cut-off is given here.

Broadly, the solubility is how much of the substance goes into solution per volume. High values mean a readily soluble substance, low ones a poorly soluble substance. For orientation: IC50 means the midpoint of a concentration-inhibition curve. Usually logD stands for the decadic logarithm of the distribution of all forms, ionised or not, between an organic phase and buffer at a given pH. Low values mean a more hydrophilic compound, high ones a more lipophilic compound. One may read the Papp as a coefficient for how fast a substance crosses the barrier. A low value points to poor permeation. The term inhibition denotes the percentage by which the read-out fell short of the control. Read a high inhibition as strong suppression.

A short description of series [1]: physchem. As to conditions: phosphate buffer, pH 6.5.
Description: Aqueous solubility of the compound in phosphate buffer at pH 6.5 by LYSA method
In series [2] the target is T1, Cytochrome P450 11B2, mitochondrial (Homo sapiens, UniProt P19099).
T1 sequence (P19099 whole entry): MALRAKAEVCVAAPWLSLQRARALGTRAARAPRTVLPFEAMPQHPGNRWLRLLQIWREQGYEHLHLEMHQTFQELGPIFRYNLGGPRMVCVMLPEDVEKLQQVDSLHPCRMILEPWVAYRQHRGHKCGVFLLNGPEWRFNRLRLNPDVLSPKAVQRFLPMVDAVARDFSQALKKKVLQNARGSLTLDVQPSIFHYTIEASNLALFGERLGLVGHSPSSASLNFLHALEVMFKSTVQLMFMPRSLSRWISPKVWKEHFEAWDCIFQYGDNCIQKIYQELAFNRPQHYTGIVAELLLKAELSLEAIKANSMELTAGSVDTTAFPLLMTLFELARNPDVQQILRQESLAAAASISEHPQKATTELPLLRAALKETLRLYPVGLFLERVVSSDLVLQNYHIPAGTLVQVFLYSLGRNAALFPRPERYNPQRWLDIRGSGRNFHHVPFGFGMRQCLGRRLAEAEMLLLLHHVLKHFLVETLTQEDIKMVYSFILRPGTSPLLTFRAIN
Description: Inhibition of human CYP11B2 expressed in human renal leiomyoblastoma cells using 11-deoxycorticosterone as substrate assessed as formation of aldosterone after 16 hrs by HTRF assay

Series [3] in a line: physchem. Conditions: 1-octanol/TAPSO buffer, pH 7.4.
The nature of series [4]: physchem. As to conditions: PAMPA. (In general: The PAMPA barrier holds no transporters, so it reflects passive diffusion.)
Description: Permeability of the compound by PAMPA
For series [5] the following is noted: human, microsomes.
Description: Clearance in human microsomes assessed per mg of protein
The conditions of series [6]: mouse, microsomes.
Description: Clearance in mouse microsomes assessed per mg of protein
For series [7] the following is noted: rat, microsomes.
Description: Clearance in rat microsomes assessed per mg of protein
Series [8] addresses Cytochrome P450 2D6 (Homo sapiens, UniProt P10635).
Description: Inhibition of CYP2D6 (unknown origin)
Series [9] concerns the target Cytochrome P450 2C9 (Homo sapiens, UniProt P11712).
Description: Inhibition of CYP2C9 (unknown origin)
Series [10] has as its target Cytochrome P450 3A4 (Homo sapiens, UniProt P08684).
Description: Inhibition of CYP3A4 (unknown origin)
The target in series [11] is T2, Cytochrome P450 11B2, mitochondrial (Rattus norvegicus, UniProt P30099).
T2 sequence (P30099 whole entry): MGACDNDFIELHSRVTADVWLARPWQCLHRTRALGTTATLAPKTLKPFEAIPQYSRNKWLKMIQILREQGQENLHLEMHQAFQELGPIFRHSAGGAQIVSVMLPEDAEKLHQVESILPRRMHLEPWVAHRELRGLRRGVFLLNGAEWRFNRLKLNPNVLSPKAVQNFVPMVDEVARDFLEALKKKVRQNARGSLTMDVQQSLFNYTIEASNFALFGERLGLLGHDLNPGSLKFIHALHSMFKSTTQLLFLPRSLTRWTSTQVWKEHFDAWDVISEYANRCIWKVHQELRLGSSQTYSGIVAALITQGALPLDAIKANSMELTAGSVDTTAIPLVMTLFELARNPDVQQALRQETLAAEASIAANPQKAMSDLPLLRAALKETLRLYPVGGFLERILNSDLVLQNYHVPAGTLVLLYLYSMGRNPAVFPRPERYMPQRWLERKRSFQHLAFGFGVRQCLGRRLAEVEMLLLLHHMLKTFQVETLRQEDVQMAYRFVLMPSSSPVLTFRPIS
Description: Inhibition of rat CYP11B2 expressed in renal leiomyoblastoma cells at 500 nM relative to control. It counts as cell-based.

Series [12] concerns the target T3, Cytochrome P450 11B2, mitochondrial (Mus musculus, UniProt P15539).
T3 sequence (P15539 whole entry): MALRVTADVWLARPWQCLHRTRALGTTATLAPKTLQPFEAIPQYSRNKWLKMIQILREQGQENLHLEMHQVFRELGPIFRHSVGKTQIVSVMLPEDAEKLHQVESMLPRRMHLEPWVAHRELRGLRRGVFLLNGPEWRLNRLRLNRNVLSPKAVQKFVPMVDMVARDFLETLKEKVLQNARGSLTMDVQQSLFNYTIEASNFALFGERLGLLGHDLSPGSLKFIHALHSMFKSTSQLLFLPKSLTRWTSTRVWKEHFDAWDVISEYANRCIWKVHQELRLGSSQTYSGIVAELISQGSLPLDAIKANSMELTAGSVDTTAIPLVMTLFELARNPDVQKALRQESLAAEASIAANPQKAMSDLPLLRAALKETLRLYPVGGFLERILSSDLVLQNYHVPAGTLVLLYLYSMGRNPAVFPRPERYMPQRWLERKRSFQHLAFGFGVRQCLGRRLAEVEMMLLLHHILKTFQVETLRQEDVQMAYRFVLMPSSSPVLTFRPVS
Description: Inhibition of mouse CYP11B2 expressed in renal leiomyoblastoma cells

The species entered for series [13] is Rattus norvegicus. The series is described as follows: Induction of improvement in glomerular filtration rate in angiotension-2 ZSF1 rat infusion model. It counts as functional, organism-based.
For series [14], the species on record is Rattus norvegicus. The series is described as follows: Reduction of aldosterone level in angiotension-2 ZSF1 rat infusion model. The format is functional, organism-based.
The species named for series [15] is Rattus norvegicus. Description: Induction of improvement in renal histology in angiotension-2 ZSF1 rat infusion model. The format is functional, organism-based.

Sequence of Cytochrome P450 2C9 (P11712 whole entry): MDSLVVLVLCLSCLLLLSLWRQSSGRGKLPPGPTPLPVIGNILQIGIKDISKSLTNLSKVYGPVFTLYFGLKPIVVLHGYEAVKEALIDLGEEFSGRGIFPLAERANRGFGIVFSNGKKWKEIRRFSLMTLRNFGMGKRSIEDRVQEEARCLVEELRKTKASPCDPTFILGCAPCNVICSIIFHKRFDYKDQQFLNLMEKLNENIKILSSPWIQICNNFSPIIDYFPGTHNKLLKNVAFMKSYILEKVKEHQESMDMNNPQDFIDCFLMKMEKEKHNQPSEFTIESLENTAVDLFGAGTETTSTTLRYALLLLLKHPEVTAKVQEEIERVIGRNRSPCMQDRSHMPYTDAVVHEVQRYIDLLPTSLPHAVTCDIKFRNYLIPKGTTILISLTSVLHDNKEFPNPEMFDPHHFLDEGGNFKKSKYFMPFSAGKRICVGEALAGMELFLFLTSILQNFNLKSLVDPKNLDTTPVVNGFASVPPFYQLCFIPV
Sequence of Cytochrome P450 3A4 (P08684 whole entry): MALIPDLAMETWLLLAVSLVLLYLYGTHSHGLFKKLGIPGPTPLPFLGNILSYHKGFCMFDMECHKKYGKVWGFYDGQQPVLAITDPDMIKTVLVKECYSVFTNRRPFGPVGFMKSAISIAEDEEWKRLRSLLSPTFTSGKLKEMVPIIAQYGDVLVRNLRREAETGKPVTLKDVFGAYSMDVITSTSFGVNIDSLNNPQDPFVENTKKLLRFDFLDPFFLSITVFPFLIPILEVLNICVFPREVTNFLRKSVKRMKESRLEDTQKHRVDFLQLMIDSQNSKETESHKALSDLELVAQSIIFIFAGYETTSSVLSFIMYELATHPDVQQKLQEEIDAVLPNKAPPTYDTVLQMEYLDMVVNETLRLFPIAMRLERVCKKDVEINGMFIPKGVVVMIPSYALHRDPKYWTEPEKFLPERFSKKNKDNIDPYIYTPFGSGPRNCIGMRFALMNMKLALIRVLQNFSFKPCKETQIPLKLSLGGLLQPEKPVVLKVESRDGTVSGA
Sequence of Cytochrome P450 2D6 (P10635 whole entry): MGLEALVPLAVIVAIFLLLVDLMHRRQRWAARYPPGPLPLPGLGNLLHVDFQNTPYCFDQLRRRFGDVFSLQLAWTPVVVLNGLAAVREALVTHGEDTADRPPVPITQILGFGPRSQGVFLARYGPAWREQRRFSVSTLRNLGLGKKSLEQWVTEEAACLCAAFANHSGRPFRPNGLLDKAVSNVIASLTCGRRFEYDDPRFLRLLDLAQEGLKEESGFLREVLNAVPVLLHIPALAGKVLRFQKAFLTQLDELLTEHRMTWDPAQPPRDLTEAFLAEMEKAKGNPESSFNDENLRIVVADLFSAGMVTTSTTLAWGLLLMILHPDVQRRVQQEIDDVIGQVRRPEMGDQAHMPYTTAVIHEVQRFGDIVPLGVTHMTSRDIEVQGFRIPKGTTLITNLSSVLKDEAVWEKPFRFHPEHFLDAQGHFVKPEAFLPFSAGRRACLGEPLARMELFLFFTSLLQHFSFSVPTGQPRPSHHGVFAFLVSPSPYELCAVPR

For the compound `CCC(=O)NC1CCCc2c(-c3ccc(Cl)c(F)c3)cncc21` (racemic), in series [1], the solubility stood at 99 µg/mL (≈ 297 µM). The IC50 in [2] was 14 nM. Further, in series [3], the logD was 3.6. The same compound displayed an apparent permeability (Papp) in series [4] of more than 4 ×10⁻⁶ cm/s. Besides, the results for the CL in series [5], in series [6] and in series [7] were less than 10 µg/min, 36 µg/min and 31 µg/min, respectively.

With `CCC(=O)NC1CCCc2c(-c3ccc(Cl)cc3F)cncc21` (racemic), the solubility in [1] came out at 129 µg/mL (≈ 388 µM). In [2], this compound displayed an IC50 of 28 nM. Further, in series [3], the logD amounted to 3.6. The apparent permeability (Papp) in [4] is more than 4 ×10⁻⁶ cm/s. Also, the figures for the CL in [5], in [6] and in series [7] were less than 10 µg/min, 21 µg/min and 46 µg/min, respectively.

The compound `CCC(=O)NC1CCCc2c(-c3ccc(F)c(F)c3)cncc21` (racemic) yielded a solubility in series [1] of 310 µg/mL (≈ 980 µM). Further, the IC50 in [2] is 47 nM. This compound had a pH-dependent lipophilicity (logD) in series [3] of 3. Also, the Papp in [4] is more than 4 ×10⁻⁶ cm/s. Besides, the CL in series [5] was less than 10 µg/min; in series [6], 17 µg/min; in [7] it was 85 µg/min.

As for `CC(=O)NC1CCCc2c(-c3ccc(C#N)cc3)cncc21` (racemic), the concentration in solution in series [1] (solubility) was 415 µg/mL (≈ 1420 µM). For the same compound, the IC50 is more than 50000 nM in [8], 21 nM in [2], more than 50000 nM in series [9] and more than 50000 nM in [10]. The compound further yielded a pH-dependent lipophilicity (logD) in [3] of 1.8. Besides, in series [4], the Papp was more than 4.4 ×10⁻⁶ cm/s. In addition, the CL in series [5], in series [6] and in series [7] was less than 10 µg/min throughout.

For `O=C1CCc2cc(-c3cncc4ccccc34)ccc2N1`, the inhibition at 0.5 µM in [11] stood at 65%.

The compound `N#Cc1ccc([C@H]2CCc3cncn32)c(F)c1` [OSILODROSTAT] displayed a half-inhibitory concentration (IC50) in series [12] of 210 nM.

As for `N#Cc1ccc(-c2cncc3c2CCCC3N)cc1` (racemic), in series [2], half-maximal inhibition (IC50) was put at 42 nM. Besides, the CL in series [5] was less than 10 µg/min; in series [6] it was 12 µg/min; in [7], less than 10 µg/min.

With `CC(C)C(=O)NC1CCCc2c(-c3ccc(C#N)cc3)cncc21` (racemic), the concentration in solution in series [1] (solubility) was 90 µg/mL (≈ 282 µM). Moreover, the IC50 in [8], in [9] and in series [10] was more than 50000 nM in each case. Further, in [3], the logD came to 2.6. Besides, the Papp in series [4] was more than 4.4 ×10⁻⁶ cm/s. The CL in series [5], in series [6] and in [7] was less than 10 µg/min throughout.

In the case of `COC(=O)[C@@H]1CC2=CC(=O)CC[C@]2(C)[C@@]23O[C@@H]2C[C@@]2(C)[C@@H](CC[C@@]24CCC(=O)O4)[C@H]13`, the outcome in series [13], in series [14] and in series [15] was Active.

In turn, `N#Cc1ccc(-c2cccnc2)cc1` gave an IC50 in series [2] of 40 nM. In addition, the values for the CL in [5], in series [6] and in series [7] were less than 10 µg/min, 53 µg/min and less than 10 µg/min, respectively.

For `CCC(=O)NC1CCCc2c(-c3cc(F)c(F)cc3F)cncc21` (racemic), the solubility in series [1] amounted to 239 µg/mL (≈ 715 µM). The compound further displayed an IC50 in [2] of 27 nM. Besides, in series [3], the logD stood at 3.1. In series [4], the Papp is more than 4 ×10⁻⁶ cm/s. Also, the figures for the CL in series [5], in [6] and in series [7] were less than 10 µg/min, less than 10 µg/min and 78 µg/min, respectively.
